In ChEMBL document CHEMBL5584316, “Arcopilins: A New Family of Staphylococcus aureus Biofilm Disruptors from the Soil Fungus Arcopilus navicularis” (J Med Chem, 2024):
Activity calls are given as the source filed them. The calls are words filed in the database; no cut-off is given here.

Legend:
Staphylococcus aureus [1] = assay: Antimicrobial activity against Staphylococcus aureus DSM 1104 assessed as disruption of preformed biofilm by measuring reduction in metabolic activity at 3.9 ug/ml incubated for 24 hrs by XTT assay; type: functional, organism-based; details: dose 3.9 µg/ml
[2] = tested on: Mycolicibacterium smegmatis; assay: Antimicrobial activity against Mycobacterium smegmatis ATCC 700084 assessed as inhibition of microbial growth incubated overnight by serial dilution method; type: functional
Pseudomonas aeruginosa = assay: Antimicrobial activity against Pseudomonas aeruginosa PA14 assessed as inhibition of microbial growth incubated overnight by serial dilution method; type: functional, organism-based
Staphylococcus aureus [3] = assay: Synergistic antimicrobial activity against Staphylococcus aureus DSM 1104 planktonic cells assessed as fractional inhibitory concentration index at 3.9 ug/ml in presence of gentamicin by checkerboard assay; type: functional; details: dose 3.9 µg/ml
Wickerhamomyces anomalus = assay: Antimicrobial activity against Wickerhamomyces anomalus DSM 6766 assessed as inhibition of microbial growth incubated overnight by serial dilution method; type: functional, organism-based
Staphylococcus aureus [4] = assay: Synergistic antimicrobial activity against Staphylococcus aureus DSM 1104 planktonic cells assessed as gentamicin MIC at 3.9 ug/ml by checkerboard assay; type: functional; details: dose 3.9 µg/ml
Staphylococcus aureus [5] = assay: Synergistic antimicrobial activity against Staphylococcus aureus DSM 1104 planktonic cells assessed as fractional inhibitory concentration index at 3.9 ug/ml in presence of vancomycin by checkerboard assay; type: functional; details: dose 3.9 µg/ml
Escherichia coli = assay: Antimicrobial activity against Escherichia coli DSM 1116 assessed as inhibition of microbial growth incubated overnight by serial dilution method; type: functional, organism-based
Staphylococcus aureus [6] = assay: Synergistic antimicrobial activity against Staphylococcus aureus DSM 1104 planktonic cells assessed as inhibition of preformed biofilm by measuring fold increase in vancomycin potency at 3.9 to 7.8 ug/ml measured at 24 to 48 hrs by CFU counting assay relative to control; type: functional; details: dose 3.9-7.8 µg/ml; time 24-48 hrs
Staphylococcus aureus [7] = assay: Synergistic antimicrobial activity against Staphylococcus aureus DSM 1104 planktonic cells assessed as vancomycin MIC at 3.9 ug/ml by checkerboard assay; type: functional; details: dose 3.9 µg/ml
Staphylococcus aureus [8] = assay: Synergistic antimicrobial activity against Staphylococcus aureus DSM 1104 planktonic cells assessed as fold increase in gentamicin potency at 3.9 ug/ml by checkerboard assay relative to control; type: functional; details: dose 3.9 µg/ml
[9] = tested on: Chromobacterium violaceum; assay: Antimicrobial activity against Chromobacterium violaceum DSM 30191 assessed as inhibition of microbial growth incubated overnight by serial dilution method; type: functional, organism-based
Rhodotorula glutinis = assay: Antimicrobial activity against Rhodotorula glutinis DSM 10134 assessed as inhibition of microbial growth incubated overnight by serial dilution method; type: functional, organism-based
Staphylococcus aureus [10] = assay: Antimicrobial activity against Staphylococcus aureus DSM 346 assessed as inhibition of microbial growth at 3.9 to 7.8 ug/ml measured for 10 hrs; type: functional, organism-based; details: DSM346, dose 3.9-7.8 µg/ml
Staphylococcus aureus [11] = assay: Antimicrobial activity against Staphylococcus aureus DSM 1104 assessed as disruption of preformed biofilm by measuring reduction in metabolic activity at 2 to 7.8 ug/ml measured every 90 mins for 10 hrs by absorbance based analysis; type: functional, organism-based; details: dose 2-7.8 µg/ml
Staphylococcus aureus [12] = assay: Antibiofilm activity in Staphylococcus aureus DSM1104 assessed as disruption of preformed biofilm at 3.9 ug/ml incubated for 18 hrs by crystal violet staining based assay relative to control; type: functional; details: dose 3.9 µg/ml
Staphylococcus aureus [13] = assay: Synergistic antimicrobial activity against Staphylococcus aureus DSM 1104 planktonic cells assessed as inhibition of preformed biofilm by measuring fold increase in gentamicin potency at 3.9 to 7.8 ug/ml measured at 24 to 48 hrs by CFU counting assay relative to control; type: functional; details: dose 3.9-7.8 µg/ml; time 24-48 hrs
Staphylococcus aureus [14] = assay: Antibiofilm activity in Staphylococcus aureus DSM1104 assessed as disruption of preformed biofilm at […] to […] ug/ml incubated for 18 hrs by crystal violet staining based assay relative to control; type: functional; details: dose lower […] microg/ml, dose upper 250 µg/ml
Staphylococcus aureus [15] = assay: Antimicrobial activity against Staphylococcus aureus DSM 346 assessed as inhibition of microbial growth incubated overnight by serial dilution method; type: functional
Staphylococcus aureus [16] = assay: Antimicrobial activity against Staphylococcus aureus DSM 1104 assessed as inhibition of microbial growth incubated overnight by serial dilution method; type: functional; details: DSM1104
Candida albicans = assay: Antimicrobial activity against Candida albicans DSM 1665 assessed as inhibition of microbial growth incubated overnight by serial dilution method; type: functional
Staphylococcus aureus [17] = assay: Antibiofilm activity in Staphylococcus aureus DSM1104 assessed as disruption of preformed biofilm at 7.8 to 250 ug/ml incubated for 18 hrs by crystal violet staining based assay relative to control; type: functional; details: dose 7.8-250 µg/ml, at 7.8 to 250 µg/mL
[18] = tested on: Schizosaccharomyces pombe; assay: Antimicrobial activity against Schizosaccharomyces pombe DSM 70572 assessed as inhibition of microbial growth incubated overnight by serial dilution method; type: functional
Mucor hiemalis = assay: Antimicrobial activity against Mucor hiemalis DSM 2656 assessed as inhibition of microbial growth incubated overnight by serial dilution method; type: functional
Staphylococcus aureus [19] = assay: Antibiofilm activity in Staphylococcus aureus DSM1104 assessed as disruption of preformed biofilm at 31.3 ug/ml incubated for 18 hrs by crystal violet staining based assay; type: functional, organism-based; details: dose 31.3 µg/ml
L929 = assay: Cytotoxicity against mouse L929 cells assessed as inhibition of cell growth incubated for 5 days by MTT assay; type: toxicity, cell-based; details: l929, 120 h, time 5 day
KB 3-1 = assay: Cytotoxicity against human KB-3-1 cells assessed as inhibition of cell growth incubated for 5 days by MTT assay; type: toxicity, cell-based; details: kb 3-1, 120 h, time 5 day
Staphylococcus aureus [20] = assay: Antibiofilm activity in Staphylococcus aureus DSM1104 assessed as disruption of preformed biofilm at 3.9 to 250 ug/ml incubated for 18 hrs by crystal violet staining based assay; type: functional, organism-based; details: dose 3.9-250 µg/ml
Bacillus subtilis = assay: Antimicrobial activity against Bacillus subtilis DSM 10 assessed as inhibition of microbial growth incubated overnight by serial dilution method; type: functional
Staphylococcus aureus [21] = assay: Antibiofilm activity in Staphylococcus aureus DSM1104 assessed as disruption of preformed biofilm; type: functional, organism-based

Compound	Activity [2]	Activity (Pseudomonas aeruginosa)	Activity (Wickerhamomyces anomalus)	Activity (Escherichia coli)	Activity [9]	Activity (Rhodotorula glutinis)	Activity (Candida albicans)	Activity [18]	Activity (Staphylococcus aureus [15])	Activity (L929)	Activity (Mucor hiemalis)	Activity (KB 3-1)	further results
CC(=O)[C@H](C)C[C@@H](C)C[C@H](C)C(=O)C1=C(O)/C(=C/c2ccccc2)NC1=O	inactive	inactive	inactive	inactive	inactive	inactive							Activity (Staphylococcus aureus [1]): Active; fractional inhibitory concentration index (FICI) (Staphylococcus aureus [3]): 0.126; MIC (Staphylococcus aureus [4]): 0.13 µg/mL; fractional inhibitory concentration index (FICI) (Staphylococcus aureus [5]): 0.158; fold change (FC) (Staphylococcus aureus [6]): 3; MIC (Staphylococcus aureus [7]): 0.065 µg/mL; fold change (FC) (Staphylococcus aureus [8]): 115; Activity (Staphylococcus aureus [10]): Active; Activity (Staphylococcus aureus [11]): Active; Activity (Staphylococcus aureus [12]): 35%; fold change (FC) (Staphylococcus aureus [13]): 3; Activity (Staphylococcus aureus [14]): ~50%
GENTAMICIN													MIC (Staphylococcus aureus [15]): 0.4 µg/mL; MIC (Pseudomonas aeruginosa): 0.21 µg/mL; MIC (Escherichia coli): 1.7 µg/mL; MIC [9]: 0.42 µg/mL; MIC (Staphylococcus aureus [16]): 15.7 µg/mL
C[C@H](C[C@@H](C)[C@H](C)OC=O)C[C@H](C)C(=O)C1=C(O)/C(=C/c2ccccc2)NC1=O	inactive	inactive	inactive	inactive	inactive	inactive	inactive	inactive					Activity (Staphylococcus aureus [17]): 50%; Activity (Staphylococcus aureus [12]): 35%
NYSTATIN													MIC (Mucor hiemalis): 8.3 µg/mL; MIC (Wickerhamomyces anomalus): 8.3 µg/mL; MIC (Rhodotorula glutinis): 4.2 µg/mL; MIC [18]: 4.2 µg/mL
CC[C@H](C)C[C@@H](C)C[C@H](C)C(=O)C1=C(O)/C(=C/c2ccccc2)NC1=O		inactive	inactive	inactive	inactive	inactive	inactive	inactive	inactive				Activity (Staphylococcus aureus [19]): Active
C[C@H](C[C@@H](C)[C@H](C)O)C[C@H](C)C(=O)C1=C(O)/C(=C/c2ccccc2)NC1=O	inactive	inactive	inactive	inactive	inactive	inactive	inactive	inactive		Non-Toxic	inactive	Non-Toxic	
CC[C@H](C)[C@@H]1O[C@H](c2c(O)c(-c3ccccc3)cn(O)c2=O)[C@@H](C)C[C@@H]1C	inactive	inactive	inactive	inactive	inactive	inactive	inactive	inactive			inactive		Activity (Staphylococcus aureus [20]): inactive
C[C@@H](C[C@H](C)C(=O)C1=C(O)/C(=C/c2ccccc2)NC1=O)C[C@](C)(O)C(=O)CO	inactive	inactive	inactive	inactive	inactive	inactive	inactive	inactive	inactive	Non-Toxic	inactive	Non-Toxic	Activity (Bacillus subtilis): inactive
C[C@@H](C[C@H](C)C(=O)C1=C(O)/C(=C/c2ccccc2)NC1=O)C[C@](C)(O)[C@@H](O)CO	inactive	inactive	inactive	inactive	inactive	inactive	inactive	inactive	inactive	Non-Toxic	inactive	Non-Toxic	Activity (Bacillus subtilis): inactive
CCC(/C=C(C)/C=C/C(=O)c1c(O)c(-c2ccc(O)cc2)cn(O)c1=O)CO (centres undefined)													Activity (Staphylococcus aureus [21]): inactive
